Measured values from patent publication US12378245B2, “Crystalline forms of an RSK inhibitor” (PHOENIX MOLECULAR DESIGNS, priority 2019, dated 2025).

What was measured:
Format in all cases: physicochemical
[1] = Dynamic Vapor Sorption (DVS); details: for form by post-DVS XRPD analysis: after exposure to DVS humidity conditions
Protocol: Approximately, 10-20 mg of sample was placed into a mesh vapour sorption balance pan and loaded into a DVS Intrinsic dynamic vapour sorption balance by Surface Measurement Systems. The sample was subjected to a ramping profile from 40-90% relative humidity (RH) at 10% increments, maintaining the sample at each step until a stable weight had been achieved (dm/dt 0.004%, minimum step length 30 minutes, maximum step length 500 minutes) at 25° C. After completion of the sorption cycle, the sample was dried using the same procedure to 0% RH and then a second sorption cycle back to 40% RH. Two cycles were performed. The weight change during the sorption/desorption cycles were plotted, allowing for the hygroscopic nature of the sample to be determined. XRPD analysis was then carried out on any solid retained.

[2] = Stability Studies - Eight Week Study; details: 40° C./75% RH (uncapped), 80° C. (capped), ambient light and temperature (approx. 22° C.)
Protocol: About 5 mg of Compound 1, Form 1 was weighed into twenty-four, 1.5 mL glass vials. Each vial was placed at either 40° C./75% RH (uncapped vial), 80° C. (capped vial) and under ambient light and temperature (approx. 22° C., capped vial) for a total of 8 weeks. […] was removed from each condition for XRPD, ^1H NMR and HPLC purity analysis at 1 week, 2 weeks, 4 weeks and 8 weeks.

[3] = Stability Studies - One Week Study; details: 40° C./75% RH or 80° C./under ambient light for 1 week
Protocol: About 15 mg of Compound 1, Forms 1 and 2 were separately placed at either 40° C./75% RH or 80° C./under ambient light for 1 week. The resulting solids were analysed by XRPD and HPLC purity. No changes in Form 1 or Form 2 were observed under these conditions after 1 week.

form by post-DVS XRPD analysis ([1]; listed as Form 2 of Compound 1, hydrochloride) | change in mass / mass uptake by DVS ([1]; at 90% RH, 25° C., listed as Form 2 of Compound 1, hydrochloride) [%] | form by post-DVS XRPD analysis ([1]; listed as Form 1 of Compound 1, hydrochloride) | water uptake by DVS ([1]; at 90% RH, 25° C.) | change in mass / mass uptake by DVS ([1]; at 90% RH, 25° C., listed as Form 1 of Compound 1, hydrochloride) | hygroscopic nature by DVS ([1]; ramping 40-90% RH, 25° C., two cycles) | change in purity by HPLC ([2]; 8 weeks) | change by XRPD and NMR analysis ([2]; after 8 weeks) | changes by XRPD and HPLC purity [3] | SMILES
no change in form | 1.8 |  |  |  |  |  |  |  | C[C@@H]1CNC(=O)c2cc3ccc(C(=O)Nc4cnn(Cc5ccc(N)cc5)c4)nc3n21.Cl [Compound 1, Form 2, (R)—N-(1-(4-aminobenzyl)-1H-pyrazol-4-yl)-9-methyl-6-oxo-6,7,8,9-tetrahydropyrido[3′,2′:4,5]pyrrolo[1,2-a]pyrazine-2-carboxamide hydrochloride]
 |  | remained as Form 1 | 0.2 equiv. of water | +0.8% | slightly hygroscopic | no significant change | no change | No changes | C[C@@H]1CNC(=O)c2cc3ccc(C(=O)Nc4cnn(Cc5ccc(N)cc5)c4)nc3n21.Cl [Compound 1, Form 1, (R)—N-(1-(4-aminobenzyl)-1H-pyrazol-4-yl)-9-methyl-6-oxo-6,7,8,9-tetrahydropyrido[3′,2′:4,5]pyrrolo[1,2-a]pyrazine-2-carboxamide hydrochloride]
